Like-named read-outs stand apart in the source and are kept apart here. Blank lines part the entries; values can stand above or below the compound they belong to.
How the values were obtained:
[1] = tested on: female double transgenic rats (transgenic for human renin and angiotensin); experiment: Telemetry of mean arterial blood pressure after oral vs transdermal delivery in double transgenic rats; type: in vivo, rat; conditions: for ABC36h: area between curves of MAP
Method: Female double transgenic rats (rats transgenic for human renin and […] (see, e.g., Bohlender et al., J Am Soc Nephrol 11:2056 (2000)) were developed. All animals were maintained under identical conditions and had free access to normal pelleted rat chow and water. Rats were initially treated with enalapril (1 mg/kg/day), starting 3 weeks after birth and during 9 weeks. Telemetry transmitters are implanted within 2 to 4 weeks after cessation of enalapril treatment. After approximately two weeks following cessation of enalapril treatment, the double transgenic rats are hypertensive with mean arterial blood pressures in the range of 160-170 mmHg.
Transmitter implantation—The rats were anesthetized using isoflurane (via inhalation, 2-3%) The pressure transmitter was implanted under aseptic conditions into the peritoneal cavity with the sensing catheter placed in the descending aorta below the renal arteries pointing upstream. The transmitter was sutured to the abdominal musculature, the skin closed, and the rats were individually housed in a cage, placed on a telemetry receiver pad to enable collection of the blood pressure data during recovery from anesthesia and thereafter. The rats were single-caged for the duration of the recording of telemetry data.
Telemetry System—Telemetry units were obtained from Data Sciences International (DSI, St. Paul, Minn.). […] The tip of the catheter was filled with a viscous gel that prevents blood reflux. The implants (length=2.5 cm, diameter=1.2 cm) weighed 9 g and have a typical battery life of 6 months. A receiver platform (RPC-1, DSI) connected the radio signal to digitized input that was sent to a dedicated personal computer. Arterial pressures were calibrated by using an input from an ambient-pressure reference (APR-1, DSI). Systolic, mean and diastolic blood pressure was expressed in millimeter of mercury (mmHg).
Telemetry data analysis—Signals received by the receivers were digitized for 10 seconds every 5 minutes, at 500 Hz. From this signal, mean arterial pressure (MAP), systolic and diastolic blood pressure (SBP and DPB), pulse pressure (PP), heart rate (HR) and activity (ACT) were derived. A one-hour moving average of the data was then performed by the DSI analysis software. Data were then exported to an Excel template for the calculation of group statistics, areas between curves (ABC), maximal effect and duration of MAP reduction.
Drug administration—For oral delivery, double transgenic rats with implanted pressure transmitters were dosed by oral gavage with a single bolus of vehicle (0.5% methocel; 5 ml/kg) or of the test substance (30 mg/5 ml/kg) (n=5 per group). After dosing, the rat was returned to his cage. Blood pressure data were collected up to 5 days after oral dosing.
(§1) For transdermal delivery, double transgenic rats with implanted pressure transmitters were dosed with a single application on the shaved skin of the rat of vehicle (250 μl of 100% DMSO; n=4) or of the test compound (10 mg in 250 μl of 100% DMSO, i.e. 33 mg/kg; n=5). The rat was lightly sedated under 2.5% isoflurane anesthesia, and its back was shaved over a 4 cm^2 area. The animal was returned to his cage to recover from anesthesia. Twenty-four hours later, the rat was lightly sedated under 2.5% isoflurane anesthesia, and the shaved area disinfected with 3 passes of ethanol.
After evaporation of the ethanol, a volume of 250 μl of 100% DMSO only, or of the compound dissolved in a 100% DMSO solution was applied over the shaved area using a micropipette. After complete evaporation of the DMSO solution (within 5 min after application), an occlusive transparent, waterproof film (OpSite) was taped to the back of the animal over the shaved area, and a jacket was fitted on the animal. Isoflurane inhalation was stopped, and the animal individually caged for telemetry data collection. Blood pressure data were collected up to 5 days after application of the compound/DMSO solution.

[2] = Test substance levels / bioavailability (AUC) in systemic circulation of telemetrized dTG rats; type: in vivo; conditions: double transgenic (dTG), rat, T24h, read-out: AUC24h
[3] = target: T1, Plasma renin activity (PRA) (Homo sapiens, UniProt P00797); experiment: Plasma renin activity (PRA) inhibition in dTG rats after TD delivery; type: in vivo, rat; conditions: TD 10 mg in DMSO (33 mg/kg); PRA at T4h vs T0h
T1 construct: from tissue; host or cells: plasma of female double transgenic rats (human renin and angiotensinogen transgenes)
T1 sequence (P00797 67-406): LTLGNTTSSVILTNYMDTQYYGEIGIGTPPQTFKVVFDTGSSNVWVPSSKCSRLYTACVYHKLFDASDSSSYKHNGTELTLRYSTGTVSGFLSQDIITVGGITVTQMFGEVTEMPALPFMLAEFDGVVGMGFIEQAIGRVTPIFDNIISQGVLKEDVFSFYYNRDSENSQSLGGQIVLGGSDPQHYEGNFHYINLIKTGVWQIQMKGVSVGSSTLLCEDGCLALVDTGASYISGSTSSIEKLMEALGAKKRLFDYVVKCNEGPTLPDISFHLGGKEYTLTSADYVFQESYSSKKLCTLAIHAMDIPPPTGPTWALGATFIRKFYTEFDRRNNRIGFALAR
Method: as §1
A blood sample (0.3 ml) was taken by tail bleed or jugular iv in the telemetrized dTGs, at T0h, T4h and T24h after TD delivery to determine test substance levels and bioavailability (estimated as area under the curve, or AUC) of the active substance in systemic circulation. Plasma renin activity (PRA) was also measured at T0h and T4h. The effect of the test substance on PRA is expressed as the percentage of inhibition of PRA at T4h vs T0h.

[4] = target: T2, recombinant renin in human plasma (Homo sapiens, UniProt P00797); experiment: Inhibition of renin in human plasma; type: biochemical; conditions: human EDTA plasma, 1 nM recombinant renin added, 37° C., 1 hour; read-out: Human Renin IC50 (plasma)
T2 construct: purchased Proteos
T2 sequence (P00797 67-406): T1 sequence (P00797 67-406)
Method: Human EDTA-collected plasma is rapidly thawed in warm water and centrifuged at 2900 g for 15 minutes at 4° C. The supernatant is collected and recombinant renin (Proteos) is added at a final concentration of 1 nM. […] The plate is incubated at 37° C. for 1 hour. […] Background fluorescence at t=0 is subtracted from the measurement at t=1 hour. Inhibitory activity of the compounds is expressed as IC50.

Human recombinant renin = target: T3, Human recombinant renin (Homo sapiens, UniProt P00797); experiment: Inhibition of human recombinant renin (buffer); type: biochemical; conditions: 100 pM renin, 50 mM MOPS pH 7.4, 37° C., 3 hours; read-out: Human Renin IC50 (buffer)
T3 construct: purchased Proteos
T3 sequence (P00797 67-406): T1 sequence (P00797 67-406)
Method: Fluorescence is measured at times 0 and 3 hours with a SpectraMax Gemini EM reader set at an excitation wavelength of 328 nm and at an emission wavelength of 388 nm. Background fluorescence at t=0 is subtracted from the measurement at t=3 hours. Inhibitory activity of the compounds is expressed as IC50.

[5] = PO, single oral gavage 30 mg/5 ml/kg in 0.5% methocel
[6] = TD, single application 10 mg in 250 μl 100% DMSO (33 mg/kg) on shaved skin

Compound: COCCCc1cc(CN(C(=O)[C@H]2CNCC[C@@H]2c2ccn(C)c(=O)c2)C2CC2)cc(Br)c1C (relative stereo) [test substance, trans-N-({3-Bromo-4-methyl-5-[3-(methyloxy)propyl]phenyl}methyl)-N-cyclopropyl-4-(1-methyl-2-oxo-1,2-dihydro-4-pyridinyl)-3-piperidinecarboxamide]
duration of MAP reduction [1, 5]: 2 days
max MAP decrease [1, 5]: 57 mmHg
ABC36h [1, 5]: 1143 mmHg * h
duration of MAP reduction [1, 6]: 1 days
max MAP decrease [1, 6]: 30 mmHg
ABC36h [1, 6]: 514 mmHg * h
AUC(0-t) ([2]; topical, TD 10 mg in DMSO (33 mg/kg), blood samples at T0h, T4h): 2.9 µM·h
AUC(0-t) ([2]; PO 30 mg/kg, blood samples at T0, T6h): 1.8 µM·h
PRA inhibition at 4 h [3]: 98%

IC50 [4]: 81 nM
IC50 (Human recombinant renin): 15 nM
Compound: COCCCc1cc(CN(C(=O)[C@@H]2CNCC[C@H]2c2ccn(C)c(=O)c2)C2CC2)cc(-c2ccccc2)c1 (relative stereo) [Example 33, trans-N-Cyclopropyl-4-(1-methyl-2-oxo-1,2-dihydro-4-pyridinyl)-N-({5-[3-(methyloxy)propyl]-3-biphenylyl}methyl)-3-piperidinecarboxamide]

Reference: patent publication US8889714B2, “3,4-substituted piperidine derivatives as renin inhibitors” (Actelion Pharmaceuticals Ltd., priority 2008, dated 2014)
